# Measurements: the Kinase Knowledgebase extract (Sharma et al. 2016)
# Target: PIK3CA (human) (UniProt P42336)
# Experiment: Assessment of PIK3CA Kinase Activity
# Sequence of PIK3CA (human) (P42336 whole entry, looked up): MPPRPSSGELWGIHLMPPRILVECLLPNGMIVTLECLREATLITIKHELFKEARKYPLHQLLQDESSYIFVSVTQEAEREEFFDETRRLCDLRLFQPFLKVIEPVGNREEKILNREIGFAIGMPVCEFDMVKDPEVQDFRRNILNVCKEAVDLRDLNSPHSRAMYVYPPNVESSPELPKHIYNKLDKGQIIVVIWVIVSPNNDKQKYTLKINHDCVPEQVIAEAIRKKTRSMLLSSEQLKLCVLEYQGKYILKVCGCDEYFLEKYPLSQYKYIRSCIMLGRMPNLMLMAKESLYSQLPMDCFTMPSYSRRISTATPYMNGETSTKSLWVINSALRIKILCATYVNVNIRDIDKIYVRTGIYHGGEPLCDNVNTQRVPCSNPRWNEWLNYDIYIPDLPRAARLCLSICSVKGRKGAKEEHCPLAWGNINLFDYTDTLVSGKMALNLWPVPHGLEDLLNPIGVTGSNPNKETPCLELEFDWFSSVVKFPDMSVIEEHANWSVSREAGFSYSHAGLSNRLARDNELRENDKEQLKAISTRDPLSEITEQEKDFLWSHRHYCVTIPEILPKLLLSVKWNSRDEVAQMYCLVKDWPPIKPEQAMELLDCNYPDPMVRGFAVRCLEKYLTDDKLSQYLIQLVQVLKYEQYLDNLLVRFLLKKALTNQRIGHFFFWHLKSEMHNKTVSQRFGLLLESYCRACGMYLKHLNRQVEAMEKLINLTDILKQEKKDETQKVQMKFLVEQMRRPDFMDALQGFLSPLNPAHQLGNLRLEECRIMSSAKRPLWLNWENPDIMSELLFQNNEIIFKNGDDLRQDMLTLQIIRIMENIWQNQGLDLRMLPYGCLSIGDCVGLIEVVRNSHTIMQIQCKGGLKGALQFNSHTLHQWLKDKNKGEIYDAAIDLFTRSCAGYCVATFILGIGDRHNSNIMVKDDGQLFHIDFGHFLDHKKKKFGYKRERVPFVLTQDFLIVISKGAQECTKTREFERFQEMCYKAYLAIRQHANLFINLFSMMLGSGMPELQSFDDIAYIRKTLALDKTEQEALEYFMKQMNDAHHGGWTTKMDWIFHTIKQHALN
row,IC50 [µM],SMILES
1,< 5,CCNC(=O)Nc1ccc2ncc(-c3ccc(OC)c(O)c3)nc2n1
2,< 1,COc1cc(Nc2cnc3ccc(NC(=S)NC4CCCC4)nc3n2)cc(OC)c1OC
3,< 1,COc1cc(-c2ccc3ncc(NC(=O)NC4CCCC4)nc3n2)ccc1O
4,< 1,O=C(Nc1cnc2ccc(-c3cc(Cl)c(O)c(Cl)c3)nc2n1)NC1CCCC1
5,< 1,CNC(=S)Nc1cnc2ccc(-c3ccc(O)c(OC)c3)nc2n1
6,< 1,CCNC(=S)Nc1ccc2ncc(Nc3cc(OC)c(OC)c(OC)c3)nc2n1
7,< 5,CNC(=O)Nc1cnc2ccc(-c3ccc(OC)c(OC)c3)nc2n1
8,< 1,COc1cc(-c2ccc3ncc(NC(=O)NC4CCN(C(=O)C(F)(F)F)CC4)nc3n2)ccc1O
9,< 1,COc1cc(-c2ccc3ncc(NC(=O)Nc4ccncc4)nc3n2)ccc1O
10,< 1,CCNC(=S)Nc1ccc2ncc(Nc3ccc(OC)c(O)c3)nc2n1
11,< 5,CCNC(=O)Nc1ccc2ncc(-c3ccc(OC(C)=O)c(OC)c3)nc2n1
12,< 5,CC(C)(C)NC(=O)Nc1cnc2ccc(-c3cc(Cl)c(O)c(Cl)c3)nc2n1
13,< 5,CCNC(=O)Nc1ccc2ncc(Nc3cccc(O)c3)nc2n1
14,< 1,CCNC(=O)Nc1ccc2ncc(Nc3ccc(O)c(C(=O)OC)c3)nc2n1
15,< 5,CCNC(=O)Nc1ccc2ncc(Nc3cccc(OC(F)F)c3)nc2n1
16,< 5,CCNC(=O)Nc1cnc2ccc(-c3ccc(O)c(Cl)c3)nc2n1
17,< 1,COc1cc(-c2ccc3ncc(NC(=O)Nc4cccs4)nc3n2)ccc1O
18,< 5,CCNC(=O)Nc1ccc2ncc(Nc3ccccc3O)nc2n1
19,< 5,CCNC(=O)Nc1cnc2ccc(-c3cc(C)c(O)c(C)c3)nc2n1
20,< 0.5,CCNC(=O)Nc1cnc2ccc(-c3ccc(O)c(OC)c3)nc2n1

row,SMILES,IC50 [µM]
1,COc1cc(-c2ccc3ncc(NC(=O)NCCCl)nc3n2)ccc1O,< 1
